Measured values taken from PMC3125149, “SCYX-7158, an Orally-Active Benzoxaborole for the Treatment of Stage 2 Human African Trypanosomiasis” (PLoS Neglected Tropical Diseases, 2011).
Values after ≈ are worked out from the molar mass of the structure shown. Read-outs that look alike come from different tables or passages of the source.

Tests used:
T. b. brucei TREU 667 = experiment: Efficacy in mouse model for chronic (CNS, stage 2) HAT; format: in vivo
Protocol: For evaluation against late-stage CNS infections, a chronic disease inducing strain (TREU 667) of T. b. brucei was used.[19] Mice were divided into groups of ten and each animal was infected i.p. with 1×10^4 parasites (200 μL). […] Louis, MO) administered by i.p. injection on day 4 after infection. […] Animals were checked for parasitemia once per week and were immediately removed from the cages and euthanized upon recrudescence. Animals were considered to be cured of a CNS infection if they were […] for at least 180 days after the end of the treatment period.

T. b. gambiense 40R = experiment: In vitro compound sensitivity assay (resazurin viability); format: cell-based; settings: Trypanosoma brucei, 72 h
Protocol: (§1) T. b. brucei was cultured in complete HMI-9 medium,[20] which contains 10% fetal bovine serum (FBS) (Invitrogen, Carlsbad, CA), 10% Serum Plus medium (SAFC Biosciences, Lenexa, KS), and 100 units/mL penicillin and 0.1 mg/mL streptomycin. The trypanosomes were propagated in T-25 vented cap flasks (Corning Inc., Lowell, MA) at 37°C and 5% CO2 with humidity. To ensure log growth phase, trypanosomes were sub-cultured at appropriate dilutions (typically 1∶100) every 2–3 days in fresh HMI-9 medium. T. b. rhodesiense parasites were grown in MEM medium with Earle's salts supplemented with 15% horse serum. For T. b. gambiense, the MEM medium was supplemented with 5% heat-inactivated fetal calf serum (FCS) and 15% human serum.[21] L929 mouse fibroblast cells (ATCC CCL1, American Type Culture Collection, Rockville, MD) were used to determine parasite versus mammalian cell selectivity. Cells were cultured in Dulbecco's Modified Eagle Medium (DMEM), supplemented with 10% FBS, L-glutamine and 100 units/mL penicillin and 0.1 mg/mL streptomycin. MDCKII-hMDR1 cells were generously provided by P. Borst at the Netherlands Kancer Institute. Cells were cultured in DMEM with Glutamax, 10% (v/v) FBS, and 100 units/mL penicillin and 0.1 mg/mL streptomycin. Cell monolayers were fed with cell culture media 24 h after seeding and used for permeability studies 3 days later.
(§2) Compounds to be tested were serially diluted in DMSO and added to 96-well plates to give final concentrations ranging from 5 to 0.01 µg/mL. T. b. brucei parasites in the log phase of growth were diluted in HMI-9 media and added to each well for a final concentration of 1×10^4 parasites per well. For the sensitivity assays using T. b. rhodesiense and T. b. gambiense, pararasites were cultured in MEM supplemented with Baltz components (8), diluted in the aforementioned culture media, and added to each well at a density of 1×10^3 cells/well. The final concentration of DMSO was 0.5% and the total volume was 100 µL/well. After a 72 h incubation, resazurin (Sigma-Aldrich, St. Louis, MO) was added to each well [20 µL of 25 mg/100 mL stock in phosphate buffered saline (PBS)] and incubated for an additional 4–6 h.[22] To assess cell viability, fluorescence was quantified using an EnVision Multilabel Plate Reader (Perkin Elmer, Waltham, MA) at an excitation wavelength of 530 nm and emission of 590 nm. Triplicate data points were averaged to generate sigmoidal dose-response curves and determine IC50 values using XLfit curve fitting software from IDBS (Guilford, UK). The IC50 is defined as the amount of compound required to decrease parasite or cell viability by 50% compared to those grown in the absence of the test compound. […]

T. b. gambiense Drani = experiment: as above; format: cell-based; settings: Trypanosoma brucei, 72 h incubation, n = 1
Protocol: as §1, §2

T. b. gambiense DAL 1402 = experiment: as above; format: cell-based; settings: Trypanosoma brucei, 72 h incubation, n = 1
Protocol: as §1, §2

[1] = test system: T. b. gambiense ITMAP 141267; experiment: as above; format: cell-based; settings: Trypanosoma brucei, 72 h incubation, n = 1
Protocol: as §1, §2

[2] = Pharmacokinetics in uninfected mice; format: in vivo, mouse; settings: for Kp: read-out: brain to plasma ratio based on AUC0–24 h; for AUC(0-t): read-out: AUC0–24 h
Protocol: The blood distribution, CNS disposition and pharmacokinetics of SCYX-7158 were evaluated in infected or non-infected rodents following intravenous or oral administration of compounds. Pharmacokinetics and bioavailability of SCYX-7158 were also evaluated in non-infected beagle dogs and cynomolgus monkeys. In-life phases of non-infected rodent studies were performed at Vivisource (Waltham, MA); studies in non-naïve cynomolgus monkeys were performed by SNBL USA (Everett, WA). Male CD-1 mice (∼25 g), male Sprague-Dawley rats (∼225 g), or male cynomolgus monkeys (∼3–5 kg) were administered test article by either bolus intravenous injection (IV) or oral gavage. Animals in the IV groups received a single 2 mg/kg IV dose. Animals received oral doses of test articles as either single or twice daily doses ranging from 8 mg/kg to 50 mg/kg. All doses were administered as clear colorless solutions in either 50% (v/v) PEG 400: 20% (v/v) ethanol: 30% (v/v) carboxymethylcellulose (0.5% w/v in sterile water for injection) or 2% (v/v) ethanol: 5% (w/v) dextrose in sterile water for injection. […] For pharmacokinetic analysis, blood samples were collected from mice via cardiac puncture under terminal anaesthesia. Serial blood samples were collected from rats via a vascular access port located in the lateral saphenous vein. Mice and rats were euthanized in a CO2 chamber before collection of terminal blood samples or brain tissue. Blood samples were collected into polypropylene tubes containing K2EDTA anticoagulant and stored on ice until centrifuged for the preparation of plasma. Plasma was stored at −70°C. Whole brains were collected following decapitation, blotted dry, placed into polypropylene containers and then immediately frozen at approximately −70°C. CSF was collected from rats via cisterna magna puncture, placed in sterile polypropylene tubes, and stored at approximately −70°C. […] Treated samples were gently mixed at room temperature for 10 min, and then centrifuged at approximately 3000×g for 15 min at 15°C. The supernatants were transferred to 96-well plates or HPLC vials for analysis by LC-MS/MS. Pharmacokinetic parameters were calculated from composite mean plasma or tissue data using non-compartmental (oral and intravenous routes) and bi-exponential (intravenous route) analyses in Microsoft Excel.

[3] = Metabolism in primary hepatocytes; format: in vitro ADME, rat or dog; settings: over 12 h

CC1(C)OB(O)c2cc(NC(=O)c3ccc(F)cc3C(F)(F)F)ccc21 [SCYX-7158]
cure rate (T. b. brucei TREU 667; 12.5 mg/kg once daily oral over 7 days starting day 21 after infection): 80% | cure rate (T. b. brucei TREU 667; 25 mg/kg once daily oral, 7 doses, starting day 21 after infection): 100% | lowest effective oral dose in murine stage 2 study (T. b. brucei TREU 667; QD×7 days, oral): 12.5 mg/kg | IC50 (T. b. gambiense 40R): 0.363 µg/mL (≈ 0.989 µM) | IC50 (T. b. gambiense Drani): 0.129 µg/mL (≈ 0.351 µM) | IC50 (T. b. gambiense DAL 1402): 0.065 µg/mL (≈ 0.177 µM) | IC50 [1]: 0.092 µg/mL (≈ 0.251 µM) | brain AUC0–24 h ([2]; 13.4 mg/kg oral, brain): 31400 ng·h/mL | time of Cmax ([2]; 13.4 mg/kg oral, plasma): 6 h | brain AUC0–24 h ([2]; 26 mg/kg oral, brain): 68000 ng·h/mL | Kp ([2]; male, CD-1, mouse, brain and plasma, 13.4 mg/kg oral): 0.38 | Kp ([2]; male, CD-1, mouse, brain/plasma, 26 mg/kg oral): 0.6 | bioavailability ([2]; male, CD-1, mouse, plasma, 13.4 mg/kg oral, read-out: absolute oral bioavailability): 55% | CL/F ([2]; male, CD-1, mouse, plasma, 13.4 mg/kg oral, read-out: oral clearance (Cl/F) (converted)): 2.72 mL/min/kg | AUC(0-t) ([2]; male, CD-1, mouse, 4.3 mg/kg intravenous, plasma): 48000 ng·h/mL | half-life ([2]; male, CD-1, mouse, 4.3 mg/kg intravenous, plasma, read-out: apparent elimination half-life (t1/2) (converted)): 26.6 h | Cmax ([2]; male, CD-1, mouse, 13.4 mg/kg oral, brain, read-out: Cmax in brain tissue): 4620 ng/mL | AUC(0-t) ([2]; male, CD-1, mouse, 13.4 mg/kg oral, plasma): 82000 ng·h/mL | Cmax ([2]; male, CD-1, mouse, 13.4 mg/kg oral, plasma, read-out: Cmax): 6960 ng/mL | Cmax ([2]; male, CD-1, mouse, 26 mg/kg oral, brain, read-out: Cmax in brain tissue): 8100 ng/mL | AUC(0-t) ([2]; male, CD-1, mouse, 26 mg/kg oral, plasma): 113000 ng·h/mL | Cmax ([2]; male, CD-1, mouse, 26 mg/kg oral, plasma, read-out: Cmax): 9800 ng/mL | fraction of SCYX-7158 metabolized [3]: less than 5%
